The values that follow come from patent publication US12186402B2, “Polymer materials for delivery of short-chain fatty acids to the intestine for applications in human health and treatment of disease” (The University of Chicago, priority 2017, dated 2025).

In the test the test system is allergy to peanuts induced in mice. Nature of the test: Induced peanut allergy model: challenge with peanut protein; core body temperature, peanut-specific IgE, IgG1, mMCP-1. In kind it is in vivo, mouse.

Structures are written as SMILES.

Turning to `CCCC(=O)[O-].[Na+]` [sodium butyrate], the “physiological markers and symptoms of an allergic reaction” value (Example 8: allergic mice, 2.83 mg per g body weight daily by oral gavage, FIG. 17) is “not effective”. Moreover, the “core body temperature over time after challenge with peanut protein (protection)” value (FIG. 19, allergic mice, daily oral treatment) was “no protection”.
